# Source: patent US12274830B2, “Nitric oxide inhalation therapy for infants with bronchiolitis” (BEYOND AIR LTD, priority 2015, dated 2025)
# Entries after “also recorded” stand apart in the source; their conditions may differ.
# Key:
# E. coli = settings: 200 ppm gNO; cited from earlier work
# Serracia sp. = settings: 200 ppm gNO; cited from earlier work
# [1] = test system: infants with acute bronchiolitis; test: Safety and tolerability of intermittent inhalations of 160 ppm NO in hospitalized infants with acute bronchiolitis (randomized double blind study); assay type: in vivo, human
# Procedure: The study was conducted at the Soroka University Medical Center in southern Israel, and was approved by the Institutional and National Human Ethics Committee. A detailed study overview is attached as an online supplement. This study is registered with clinical trial number NCT01768884.
# The study was a randomized, prospective, single center, double blind study of 2-11 month old hospitalized infants with acute bronchiolitis (FIG. 1).
# Subjects were screened within 4 hours of admission and randomized (1:1) to receive intermittent inhalations of 160 ppm NO along with standard treatment (NO group) or intermittent inhalations of 02/air mixture and standard treatment (control group), for a maximum of 25 inhalations.
# Standard Supportive Treatment: This treatment included humidified oxygen, nasal suction when needed and hydration (oral, intra-venous or nasogastric tube fluids). The use of other concomitant medications was allowed, according to the ward's common practice.
# Nitric Oxide Treatment: Subjects spontaneously inspired 160 ppm NO in fixed flow mode via a facemask. Nitric Oxide (Maxima, Israel) of 800 ppm (0.08%) NO balanced with 99.999% purity Nitrogen (N2), was titrated into the O2/air inspiratory delivery line. Inhaled NO, NO2 and O2 concentrations in the patient breathing circuit were continuously monitored using dedicated gas analyzers. (AeroNox, International medical, USA).
# Primary Outcome: Safety measures, included % MetHb and NO2 production associated with NO treatment, bleeding episodes and any other adverse event (AE). Study threshold for NO2 and MetHb was set at 5 ppm and 5%, respectively.
# The primary outcome was safety and tolerability of intermittent inhalations of 160 ppm NO, given to infants 2 to 11 months with acute bronchiolitis. Safety measures included % MetHb associated with NO treatment (safety threshold was determined as >5% for MetHb and >5 ppm for NO2), as well as any other AEs. Tolerability measures included the proportions of subjects who prematurely discontinued the study for any reason, and the proportion of subjects who prematurely discontinued the treatment due to severe SAEs.
# The research staff was divided into “blinded” and “unblinded” groups. The unblinded staff administered the inhalations to the infants and monitored % MetHb, % SpO2 (co-oximeter, RAD57/RAD 87, Masimo Corporation, USA), fractional inhaled O2 (FiO2), NO, NO2 levels. The blinded group included the primary investigator and all other staff directly involved with patient care. Safety threshold for NO2 and MetHb was set at 5 ppm and 5%, respectively. It should be emphasized that both treatments, NO/O2 (NO treatment) as well as O2/air mixture (control) were given via the same device, therefore, parents were also blinded to the treatment arm.
# Each patient was given 5 inhalations a day of NO (treatment group) or oxygen (control group), along with the standard supportive treatment, for a maximum of 25 inhalations (based on phase I safety data). Each participant was examined and evaluated using the severity symptom score by a blinded pediatricians every […] (9 am and 3 pm). When the room-air SpO2 reached 92%, and the score was ≤5, and the patient was assessed as “ready for discharge”, the treatment was discontinued.
# The data were managed and analyzed by independent statisticians group using the SAS version 9.1 (SAS Institute, Cary, North Carolina). […]
# [2] = test system: bacteria at 10E5 CFU/ml isolated from patients; settings: 200 ppm gNO, cited from earlier work
# Group B Streptococci = settings: 200 ppm gNO; cited from earlier work
# S. aureus (Clinical) = settings: 200 ppm gNO; cited from earlier work
# Klebsiella sp. #3 = settings: 200 ppm gNO; cited from earlier work
# Acinetobacter sp. = settings: 200 ppm gNO; cited from earlier work
# [3] = NO Group (N = 21), Methemoglobin >5%
# [4] = NO Group (N = 21), NO2 concentration >5 ppm
# [5] = NO Group (N = 21), Oxyhemoglobin <89%
# [6] = average of the 13 bacteria above the line
compound,measurement,setting,value
"[N]=O [NO, nitric oxide]",+2.5 Log10,E. coli,4.2 hours
same,LD100,E. coli,5 h
same,Latent Period,E. coli,3 h
same,+2.5 Log10,Serracia sp.,4.9 hours
same,LD100,Serracia sp.,6 h
same,Latent Period,Serracia sp.,4 h
same,Bleeding episodes or deaths during the study,[1]; 160 ppm NO intermittent inhalation,no bleeding episodes or deaths; also recorded: no bleeding episodes
same,NO2 elevations and clinical evidence of toxicity,[1]; 30 minutes of inhaled 160 ppm NO five time a day,neither associated with significant elevations in NO2 nor clinical evidence of toxicity; also recorded: no events of significant NO2 elevations
same,Safety and tolerability versus control (standard supportive treatment),"[1]; ITT, PP",no statistically significant safety and tolerability differences; also recorded: comparable to those in the standard-supportive treatment
same,"Any AE, events (E)",[1]; NO Group (N = 21),22 E
same,"Any serious AE, events (E)",[1]; NO Group (N = 21),4 E
same,"Any serious AE, subjects n (%)",[1]; NO Group (N = 21),4 (19.0%) n (%)
same,"Any serious treatment-related AE, events (E)",[1]; NO Group (N = 21),0 E
same,"Any severe AE, events (E)",[1]; NO Group (N = 21),1 E
same,"Any severe AE, subjects n (%)",[1]; NO Group (N = 21),1 (4.8%) n (%)
same,"Any treatment-related AE, events",[1]; NO Group (N = 21),6 E
same,"Death, events (E)",[1]; NO Group (N = 21),0 E
same,"Death, subjects n (%)",[1]; NO Group (N = 21),0 (0.0%) n (%)
same,"Treatment withdrawal due to AE, events (E)",[1]; NO Group (N = 21),1 E
same,"Treatment withdrawal due to AE, subjects n (%)",[1]; NO Group (N = 21),1 (4.8%) n (%)
same,"Treatment-related AE: Blood and Lymphatic System Disorders, Events",[1]; NO Group (N = 21),5 Events
same,"Treatment-related AE: Investigations, Events",[1]; NO Group (N = 21),1 Events
same,"Treatment-related AE: Blood and Lymphatic System Disorders, subjects n (%)","[1]; NO Group (N = 21), MedDRA SOC",4 (19.0%) n (%)
same,"Treatment-related AE: Investigations, subjects n (%)","[1]; NO Group (N = 21), MedDRA SOC",1 (4.8%) n (%)
same,"Treatment-related AE: Methaemoglobinaemia, Events",[1]; [3],5 Events
same,"Treatment-related AE: Methaemoglobinaemia, subjects n (%)",[1]; [3],4 (19.0%) n (%)
same,"Treatment-related AE: NO2 increase, Events",[1]; [4],1 Events
same,"Treatment-related AE: NO2 increase, subjects n (%)",[1]; [4],1 (4.8%) n (%)
same,"Treatment-related AE: Oxyemoglobin decreased, Events",[1]; [5],1 Events
same,"Treatment-related AE: Oxyemoglobin decreased, subjects n (%)",[1]; [5],1 (4.8%) n (%)
same,"Any AE, subjects n (%)","[1]; NO Group (N = 21), intermittent 160 ppm NO + standard treatment",10 (47.6%) n (%)
same,"Any treatment-related AE, subjects n (%)","[1]; NO Group (N = 21), possibly or probably related to study treatment",5 (23.8%) n (%)
same,Subjects in whom MetHb values >5% were observed more than once,[1]; NO group,3 subjects
same,"Subjects with MetHb measurement >5% during the study treatment period, n (%)",[1]; NO group,6 (28.5%) n (%)
same,MetHb peak value at end of inhalation (mean),"[1]; NO group, each NO inhalation",3.3±0.9%
same,Maximum MetHb value,"[1]; NO group, in two subjects",5.6%
same,"Subjects who discontinued the study/study treatment, n (%)","[1]; NO group, tolerability",2 (9.5%) n (%)
same,SpMet level of infants undergoing the method,[1]; general statement referring to the Examples,≤ 1%
same,Cumulative effect / accumulation of MetHb over the treatment period,[1]; pre- vs end of inhalation MetHb levels,no cumulative effect; also recorded: no accumulation of MetHb
same,Reduction in CFU/ml for each gNO-exposed organism,[2]; 10E5 CFU/ml,4-6 Log10 units
same,"+2.5 Log10, Average",[2]; [6],3.82 hours
same,"LD100, Average",[2]; [6],4.77 h
same,"Latent Period, Average",[2]; [6],2.77 h
same,+2.5 Log10,Group B Streptococci,1.5 hours
same,LD100,Group B Streptococci,2 h
same,Latent Period,Group B Streptococci,1 h
same,+2.5 Log10,S. aureus (Clinical),3.7 hours
same,LD100,S. aureus (Clinical),4 h
same,Latent Period,S. aureus (Clinical),3 h
same,+2.5 Log10,Klebsiella sp. #3,5.1 hours
same,LD100,Klebsiella sp. #3,6 h
same,Latent Period,Klebsiella sp. #3,3 h
same,+2.5 Log10,Acinetobacter sp.,5 hours
same,LD100,Acinetobacter sp.,6 h
same,Latent Period,Acinetobacter sp.,4 h
